Results from article PMC12775434, “Ultra-large virtual screening unveils potent agonists of the neuromodulatory orphan receptor GPR139” (Nature Communications, 2025).
Where “and” joins values, the source holds several entries; their conditions need not be identical. Equal entries are not always repeated.

Key:
Format in all cases: cell-based
[1] = biological target: T1, GPR139 (Homo sapiens, UniProt Q6DWJ6); assay: Ca2+ mobilization assay, agonist mode, stable GPR139-CHOk1 cell line; conditions: for EC50 / Emax: Supplementary Table 2, mean ± SEM; for EC50: read-out: pEC50 Ca2+ (converted); for Emax: normalized to Lundbeck Cmp 1a, read-out: Emax (%) Ca2+
T1 sequence (Q6DWJ6 1-353): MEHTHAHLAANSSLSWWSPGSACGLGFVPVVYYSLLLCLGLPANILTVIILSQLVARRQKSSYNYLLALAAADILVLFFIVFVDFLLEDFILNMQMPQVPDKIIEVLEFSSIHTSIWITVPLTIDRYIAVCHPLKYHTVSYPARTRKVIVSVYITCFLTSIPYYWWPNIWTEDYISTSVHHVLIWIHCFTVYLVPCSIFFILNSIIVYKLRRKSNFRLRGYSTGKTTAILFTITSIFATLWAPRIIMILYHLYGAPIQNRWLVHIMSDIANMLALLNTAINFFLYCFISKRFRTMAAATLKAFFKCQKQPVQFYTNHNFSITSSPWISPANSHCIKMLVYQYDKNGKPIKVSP
Outline: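 Agonist activity of compounds is assessed in stably transfected CHO-K1 cells using the calcium dye Fluo-4 at 37 °C in HEPES-buffered HBSS (pH 7.4). Efficacy is expressed relative to the reference agonist Lundbeck Cmp 1a, set as 100%.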

[2] = biological target: T1, GPR139; assay: Ca2+ mobilization assay, antagonist mode (EC80 800 nM Lundbeck Cmp 1a after 20 min preincubation), GPR139-CHOk1
Outline: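 Antagonist mode: 800 nM (EC80) reference agonist Lundbeck Cmp 1a added following 20 min pre-incubation with 10 µM compound. GPR139-CHOk1 cells, Fluo-4 dye, probenecid-containing HEPES buffer pH 7.4; intracellular Ca2+ measured at 37 °C (ex 485, em 525 nm).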

[3] = biological target: T2, human muscarinic acetylcholine M1 receptor (M1R) (Homo sapiens, UniProt P11229); assay: Ca2+ mobilization counter-screen in M1R-CHOk1 cells
T2 sequence (P11229 1-460): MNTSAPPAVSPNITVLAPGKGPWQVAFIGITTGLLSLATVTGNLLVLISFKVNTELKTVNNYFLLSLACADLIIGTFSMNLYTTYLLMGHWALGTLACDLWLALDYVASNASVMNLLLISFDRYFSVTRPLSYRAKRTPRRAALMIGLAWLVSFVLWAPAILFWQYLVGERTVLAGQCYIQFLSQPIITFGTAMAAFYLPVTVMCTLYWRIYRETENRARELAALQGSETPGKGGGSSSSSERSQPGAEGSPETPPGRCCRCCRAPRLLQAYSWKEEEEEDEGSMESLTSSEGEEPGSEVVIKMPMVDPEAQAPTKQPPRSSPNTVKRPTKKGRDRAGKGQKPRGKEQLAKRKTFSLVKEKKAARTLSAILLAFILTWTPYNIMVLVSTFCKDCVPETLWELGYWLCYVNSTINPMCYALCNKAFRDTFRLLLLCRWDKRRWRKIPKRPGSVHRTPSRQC
Procedure: Primary screening and pharmacological characterization of compounds were performed using a CHO-K1 cell line that stably expresses human GPR139 (GPR139-CHOk1). The GPR139-CHOk1 cell line was kindly provided by H. Lundbeck A/S, Denmark[24]. GPR139-CHOk1 cells were grown in Ham’s F-12 Kaighn’s Modification Medium (ThermoFisher #21127030) supplemented with 10% dialyzed fetal bovine serum (US origin, ThermoFisher #26400044), 100 units/mL Penicillin-Streptomycin (ThermoFisher #15140122), and 1 mg/mL Geneticin (ThermoFisher #11811031). […] M1R-CHOk1 cells were purchased from The Missouri S&T cDNA Resource Center (#CEM100TN00). M1R-CHOk1 cells were grown in Ham’s F12 Medium (ThermoFisher #21765029) supplemented with 10% fetal bovine serum (Brazilian origin, ThermoFisher #10270106), 100 units/mL Penicillin-Streptomycin, and 0.25 mg/mL Geneticin. HEK293A cells transiently transfected with GPR139 were used for additional pharmacological assessment of signaling pathways activated by GPR139. HEK239A cells were generously provided by Dr. Asuka Inoue, Tohoku University, Japan. HEK293A cells were grown in Dulbecco’s Modified Eagle Medium (ThermoFisher #31966047) supplemented with 10% dialyzed fetal bovine serum and 100 units/mL Penicillin-Streptomycin. Cell lines were maintained at 37 °C in humidified incubator equilibrated with 5% CO2.
30,000 GPR139- or M1R-CHOk1 cells/well were seeded in black clear bottom tissue culture treated 96-well plates (Greiner #655090) and grown for 20–24 h. Cells were washed with HEPES buffer (Hank’s Balanced Salt Solution (HBBS) supplemented with 20 mM HEPES, 1 mM MgCl2, and 1 mM CaCl2; pH 7.4). Cells were loaded with 50 µL of 2 µM Fluo-4 AM dye (ThermoFisher #F14202) in HEPES buffer supplemented with 2.5 mM probenecid and 0.01% Pluronic F-68 (ThermoFisher #24040032) for 1 h at 37 °C. Cells were washed with HEPES buffer. 50 µL HEPES buffer supplemented with 2.5 mM probenecid was added, and the cells were incubated for 10 min at 37 °C before measurement. 50 µL test compounds diluted in HEPES buffer from DMSO stocks (final DMSO concentration of maximally 0.3%) were added automatically after baseline measurements. The intracellular calcium mobilization was measured on a FlexStation 3 Multimode Microplate Reader (Molecular Devices) at 37 °C with filters for excitation of 485 nm and emission of 525 nm.

[4] = Agonist mode, individual replicates (Supplementary Figure 4)
[5] = log [Compound] M = -4.5, individual replicate columns
[6] = log [Compound] M = -5.0, individual replicate columns
[7] = log [Compound] M = -5.5, individual replicate columns
[8] = log [Compound] M = -6.0, individual replicate columns
[9] = log [Compound] M = -6.5, individual replicate columns
[10] = log [Compound] M = -7.0, individual replicate columns
[11] = log [Compound] M = -7.5, individual replicate columns
[12] = log [Compound] M = -8.0, individual replicate columns
[13] = log [Compound] M = -8.5, individual replicate columns
[14] = log [Compound] M = -9.0, individual replicate columns
[15] = individual replicates (Supplementary Figure 4)
[16] = individual replicates (Supplementary Figure 5)

| EC50 [1] [nM] | Emax [1] [%] | SMILES | Ca2+ signal (% of Cmp 1a) [1, 4] | Ca2+ signal (% of Cmp 1a) [1, 5] | Ca2+ signal (% of Cmp 1a) [1, 6] | Ca2+ signal (% of Cmp 1a) [1, 7] | Ca2+ signal (% of Cmp 1a) [1, 8] | Ca2+ signal (% of Cmp 1a) [1, 9] | Ca2+ signal (% of Cmp 1a) [1, 10] | Ca2+ signal (% of Cmp 1a) [1, 11] | Ca2+ signal (% of Cmp 1a) [1, 12] | Ca2+ signal (% of Cmp 1a) [1, 13] | Ca2+ signal (% of Cmp 1a) [1, 14] | Ca2+ signal (% of Cmp 1a) [2, 15] | Ca2+ signal (% of Carbachol) [3, 16] | other results |
| --- | --- | --- | --- | --- | --- | --- | --- | --- | --- | --- | --- | --- | --- | --- | --- | --- |
| 1580 | 99 ± 2 | Cc1nc2cc(-c3nc(CC(=O)NC(C)c4ccccc4)no3)ccc2o1 (stereo not drawn) [Compound 1.22, CC(C1=CC=CC=C1)NC(CC2=NOC(C3=CC4=C(OC(C)=N4)C=C3)=N2)=O] | 71 % of Cmp 1a and 37 % of Cmp 1a and 44 % of Cmp 1a | 109 % of Cmp 1a and 96 % of Cmp 1a and 93 % of Cmp 1a and 83 % of Cmp 1a and 99 % of Cmp 1a | 90 % of Cmp 1a and 71 % of Cmp 1a and 95 % of Cmp 1a and 84 % of Cmp 1a and 101 % of Cmp 1a | 58 % of Cmp 1a and 43 % of Cmp 1a and 99 % of Cmp 1a and 59 % of Cmp 1a and 110 % of Cmp 1a | 50 % of Cmp 1a and 22 % of Cmp 1a and 51 % of Cmp 1a and 35 % of Cmp 1a and 73 % of Cmp 1a | 30 % of Cmp 1a and 0.909 % of Cmp 1a and 8 % of Cmp 1a and 29 % of Cmp 1a and 36 % of Cmp 1a | 1.28 % of Cmp 1a and -0.203 % of Cmp 1a and -2.54 % of Cmp 1a and 0.332 % of Cmp 1a and 14 % of Cmp 1a | 1.35 % of Cmp 1a and 7.39 % of Cmp 1a and -10 % of Cmp 1a and -1.26 % of Cmp 1a and 4 % of Cmp 1a | 7 % of Cmp 1a and 10 % of Cmp 1a and -6 % of Cmp 1a and 0.314 % of Cmp 1a and 2.72 % of Cmp 1a | -3.6 % of Cmp 1a and 18 % of Cmp 1a and -4.69 % of Cmp 1a and -1.59 % of Cmp 1a and 9 % of Cmp 1a | -5 % of Cmp 1a and 7.5 % of Cmp 1a and -3.72 % of Cmp 1a and 1.69 % of Cmp 1a and 6.38 % of Cmp 1a | 13 % of Cmp 1a and 39 % of Cmp 1a and 19 % of Cmp 1a | -19 % of Carbachol and -2.46 % of Carbachol and -2.2 % of Carbachol | change in potency with larger substituents on the thiophene ring ([1]; Ca2+ mobilization): three-fold reduction to a complete loss of activity |
| – | – | O=C(NC1CC12CCCC2)C1CCCN(c2ccccc2)C1=O (stereo not drawn) [Compound 13, O=C(NC1CC21CCCC2)C3CCCN(C3=O)C=4C=CC=CC4] | – | – | – | – | – | – | – | – | – | – | – | – | – | Ca2+ signal (% of Cmp 1a) ([1]; 0.1 µM, individual replicates (Supplementary Figure 3)): -0.35 % of Cmp 1a and -3.4 % of Cmp 1a; Ca2+ signal (% of Cmp 1a) ([1]; 1 µM, individual replicates (Supplementary Figure 3)): 5.0 % of Cmp 1a and -6.6 % of Cmp 1a; Ca2+ signal (% of Cmp 1a) ([1]; 10 µM, individual replicates (Supplementary Figure 3)): 18.4 % of Cmp 1a and -6.0 % of Cmp 1a; Ca2+ signal (% of Cmp 1a) ([1]; Agonist mode, individual replicates (Supplementary Figure 1)): 47 % of Cmp 1a and 33 % of Cmp 1a and 40 % of Cmp 1a; Ca2+ signal (% of Cmp 1a) ([1]; primary screen, 10 µM compound, agonist mode, three columns = independent experiments): 47 % of Cmp 1a and 33 % of Cmp 1a and 40 % of Cmp 1a; Ca2+ signal (% of Cmp 1a) ([2]; individual replicates (Supplementary Figure 1)): 67.15 % of Cmp 1a and 66.5231 % of Cmp 1a and 65.9874 % of Cmp 1a; Ca2+ signal (% of Carbachol) ([3]; individual replicates (Supplementary Figure 2)): -12 % of Carbachol and -1.24 % of Carbachol |
| 501 | 105 ± 4 | Cc1nc(-c2nc(CC(=O)NC(C)c3ccccc3)no2)cs1 (stereo not drawn) [Compound 1.15, CC(C1=CC=CC=C1)NC(CC2=NOC(C3=CSC(C)=N3)=N2)=O] | 96 % of Cmp 1a and 108 % of Cmp 1a and 104 % of Cmp 1a | 94 % of Cmp 1a and 99 % of Cmp 1a and 118 % of Cmp 1a and 102 % of Cmp 1a | 101 % of Cmp 1a and 90 % of Cmp 1a and 112 % of Cmp 1a and 100 % of Cmp 1a | 104 % of Cmp 1a and 84 % of Cmp 1a and 109 % of Cmp 1a and 112 % of Cmp 1a | 70 % of Cmp 1a and 62 % of Cmp 1a and 81 % of Cmp 1a and 93 % of Cmp 1a | 46 % of Cmp 1a (2×) and 31 % of Cmp 1a and 57 % of Cmp 1a | 12 % of Cmp 1a and 11 % of Cmp 1a and 21 % of Cmp 1a and 17 % of Cmp 1a | 8 % of Cmp 1a and -0.333 % of Cmp 1a and 13 % of Cmp 1a and 5.67 % of Cmp 1a | 1.67 % of Cmp 1a and -3.67 % of Cmp 1a and 8 % of Cmp 1a and -2 % of Cmp 1a | 1 % of Cmp 1a and 15 % of Cmp 1a and 11 % of Cmp 1a and 10 % of Cmp 1a | 0.667 % of Cmp 1a and 7 % of Cmp 1a (2×) and 12 % of Cmp 1a | 7 % of Cmp 1a and 2.33 % of Cmp 1a | 3 % of Carbachol and 14 % of Carbachol | fold decrease in potency relative to parent compound 1 ([1]; Ca2+ mobilization EC50): 3- to 25 fold |
| 158 | 112 ± 10 | Cc1ccc(-c2nc(CC(=O)NC(C)c3ccccc3)no2)o1 (stereo not drawn) [Compound 1.6, CC(C1=CC=CC=C1)NC(CC2=NOC(C3=CC=C(O3)C)=N2)=O] | 102 % of Cmp 1a and 114 % of Cmp 1a and 83 % of Cmp 1a | 98 % of Cmp 1a and 103 % of Cmp 1a and 120 % of Cmp 1a | 89 % of Cmp 1a and 114 % of Cmp 1a and 105 % of Cmp 1a | 87 % of Cmp 1a and 107 % of Cmp 1a and 97 % of Cmp 1a | 70 % of Cmp 1a and 96 % of Cmp 1a and 81 % of Cmp 1a | 48 % of Cmp 1a and 70 % of Cmp 1a and 59 % of Cmp 1a | 17 % of Cmp 1a and 46 % of Cmp 1a and 43 % of Cmp 1a | -11 % of Cmp 1a and 21 % of Cmp 1a and 0 % of Cmp 1a | -16 % of Cmp 1a and -2 % of Cmp 1a and 1 % of Cmp 1a | -14 % of Cmp 1a and -8 % of Cmp 1a and -4 % of Cmp 1a | -22 % of Cmp 1a and -11 % of Cmp 1a and -20 % of Cmp 1a | -5.33 % of Cmp 1a and -3.67 % of Cmp 1a and -16 % of Cmp 1a | -2 % of Carbachol and -10 % of Carbachol and 10 % of Carbachol | – |
